Results taken from the NIST ThermoML archive (doi:10.1016/j.fluid.2004.10.028).

Conditions: Liquid, Capillary tube (Ostwald / Ubbelohde) method

O [water]
viscosity [mPa·s]
Conditions | 296.7 K | 338.3 K | 372.4 K | 413.62 K | 469.4 K | 500.22 K | 544.23 K | 573.7 K
5000 kPa | 0.918 | 0.431 | 0.286 | 0.196 | – | – | – | –
10000 kPa | 0.917 | 0.434 | 0.287 | 0.197 | 0.138 | 0.12 | 0.0983 | 0.086
20000 kPa | 0.915 | 0.435 | 0.288 | 0.201 | 0.141 | 0.123 | 0.1012 | 0.0891
40000 kPa | 0.914 | 0.44 | 0.293 | 0.205 | 0.145 | 0.127 | 0.106 | 0.095
